Laboratory results as given in ChEMBL document CHEMBL5550197, “New melphalan derivatives for the treatment of retinoblastoma in combination with thermotherapy” (RSC Med Chem, 2024).
pIC50: −log10 of the molar value.

Assays:
[1] = tested on: Y79; assay: Cytotoxicity against human Y79 cells assessed as cell viability incubated for 24 hrs under 37 degreeC by PrestoBlue reagent based assay; type: functional; settings: Y79, 24 h
[2] = tested on: RPMI-8226; assay: Cytotoxicity against human RPMI-8226 cells incubated for 48 hrs by resazurin dye based assay; type: functional, cell-based; settings: RPMI-8226, 48 h
[3] = tested on: dsDNA; assay: Binding affinity to dsDNA (unknown origin) assessed as adduct formation by measuring free dsDNA incubated for 48 hrs by ESI-MS analysis; type: nucleic-acid assay; design: concentration or dose not given beside the values
[4] = tested on: dsDNA; assay: Binding affinity to dsDNA (unknown origin) assessed as adduct formation by measuring bound dsDNA incubated for 48 hrs by ESI-MS analysis; type: nucleic-acid assay
[5] = tested on: Y79; assay: Potency index, ratio of melphalan IC50 to test compound IC50 for cytotoxicity against human Y79 cells assessed as cell viability incubated for 24 hrs under 37 degreeC by PrestoBlue reagent based assay; type: functional
[6] = tested on: Y79; assay: Potency index, ratio of melphalan IC50 to test compound IC50 for cytotoxicity against human Y79 cells assessed as cell viability preincubated for 1 hr under 42 degreeC and further incubated under 37 degreeC for 23 hrs by PrestoBlue reagent based assay; type: functional; settings: time 24 hrs

`N[C@@H](Cc1ccc(N(CCCl)CCCl)cc1)C(=O)OCCC(F)(F)C(F)(F)C(F)(F)C(F)(F)C(F)(F)C(F)(F)C(F)(F)C(F)(F)C(F)(F)C(F)(F)F` was tested, and the pIC50 [1] was less than 3.70.
`N[C@@H](Cc1ccc(N(CCCl)CCCl)cc1)C(=O)O` was tested, and the pIC50 [2] was 5.05 and the Activity [3] was 99%.
In the case of `N[C@@H](Cc1ccc(N(CCCl)CCCl)cc1)C(=O)OCCC(F)(F)C(F)(F)F`, the Activity [3] was 37% and the Activity [4] was 63%.
Molecule `N[C@@H](Cc1ccc(N(CCCl)CCCl)cc1)C(=O)OCCC(F)(F)C(F)(F)C(F)(F)C(F)(F)F` has an Activity [3] of 51% and an Activity [4] of 49%.
Molecule `N[C@@H](Cc1ccc(N(CCCl)CCCl)cc1)C(=O)OCCC(F)(F)C(F)(F)C(F)(F)C(F)(F)C(F)(F)C(F)(F)F` has an Activity [3] of 92%.
`N[C@@H](Cc1ccc(N(CCCl)CCCl)cc1)C(=O)OCCC(F)(F)C(F)(F)C(F)(F)C(F)(F)C(F)(F)C(F)(F)C(F)(F)C(F)(F)F` gave an Activity [3] of 98%.
In the case of `Cl.N[C@@H](Cc1ccc(N(CCCl)CCCl)cc1)C(=O)OCCC(F)(F)F`, the “Ratio IC50” value [5] was 8, the “Ratio IC50” value [6] was 8 and the Activity [3] was 26%. For the same molecule, the Activity [4] was 74%.
